Results on eleven compounds are retold here after article PMC6272230, “Uses of 3-(2-Bromoacetyl)-2H-chromen-2-one in the Synthesis of Heterocyclic Compounds Incorporating Coumarin: Synthesis, Characterization and Cytotoxicity” (Molecules, 2015).

The test system of data set [1] is human gastric cancer (NUGC). The data set is described as follows: In vitro cytotoxicity against NUGC cells. It counts as cell-based. The note with it: gastric cancer, concentration producing 50% reduction in cell growth, read-out: Cytotoxicity (IC50 in nM) NUGC. Here is the method:
(§1) The heterocyclic compounds, prepared in this study, were evaluated according to standard protocols for their in vitro cytotoxicity against six human cancer cell lines including cells derived from human gastric cancer (NUGC), human colon cancer (DLD1), human liver cancer (HA22T and HEPG2), nasopharyngeal carcinoma (HONE1), human breast cancer (MCF) and normal fibroblast cells (WI38). For comparison purposes, CHS 828, a pyridyl cyanoguanidine, was used as a standard antitumor drug (Figure 2). […] All the synthesized compounds were tested for their cytotoxicity against normal fibroblast cells.
(§2) Fetal bovine serum (FBS) and L-glutamine, were purchased from Gibco Invitrogen Co. (Scotland, UK). RPMI-1640 medium was purchased from Cambrex (East Rutherford, NJ, USA). Dimethyl sulfoxide (DMSO), CHS 828, penicillin, streptomycin and sulforhodamine B (SRB) were purchased from Sigma Chemical Co. (Saint Louis, MO, USA).
(§3) Cell cultures were obtained from the European Collection of Cell Cultures (ECACC, Salisbury, UK) and human gastric cancer (NUGC), human colon cancer (DLD1), human liver cancer (HA22T and HEPG2), human breast cancer (MCF), nasopharyngeal carcinoma (HONE1) and normal fibroblast cells (WI38) were kindly provided by the National Cancer Institute (NCI, Cairo, Egypt). They were grown as a monolayer and routinely maintained in RPMI-1640 medium supplemented with 5% heat inactivated FBS, 2 mM glutamine and antibiotics (penicillin 100 U/mL, streptomycin 100 µg/mL) at 37 °C in a humidified atmosphere containing 5% CO2. Exponentially growing cells were obtained by plating 1.5 × 10^5 cells/mL for the six human cancer cell lines followed by 24 h of incubation. The effect of the vehicle solvent (DMSO) on the growth of these cell lines was evaluated in all the experiments by exposing untreated control cells to the maximum concentration (0.5%) of DMSO used in each assay.

Data set [2] has as its system human colon cancer (DLD1). Nature of the data set: In vitro cytotoxicity against DLD1 cells. It counts as cell-based. The note with it: DLD-1, DLDI, colon cancer, concentration producing 50% reduction in cell growth, read-out: Cytotoxicity (IC50 in nM) DLDI. The method, then: as §1, §2, §3
Data set [3] relates to human liver cancer (HA22T). The data set is described as follows: In vitro cytotoxicity against HA22T cells. The note with it: liver cancer, concentration producing 50% reduction in cell growth, read-out: Cytotoxicity (IC50 in nM) HA22T. It counts as cell-based. Here is the method: as §1, §2, §3
In data set [4] the test system is human liver cancer (HEPG2). Nature of the data set: In vitro cytotoxicity against HEPG2 cells. It counts as cell-based. The note with it: HEPG2, liver cancer, concentration producing 50% reduction in cell growth, read-out: Cytotoxicity (IC50 in nM) HEPG2. The method, then: as §1, §2, §3
In data set [5] the test system is nasopharyngeal carcinoma (HONE1). Nature of the data set: In vitro cytotoxicity against HONE1 cells. The data set is classed as cell-based. The note with it: Homo sapiens; HONE1, nasopharyngeal carcinoma; concentration producing 50% reduction in cell growth; read-out: Cytotoxicity (IC50 in nM) HONE1. Here is the method:
as §1, §2, §3

In data set [6] the test system is human breast cancer (MCF). The data set is described as follows: In vitro cytotoxicity against MCF cells. The data set is classed as cell-based. The note with it: MCF, breast cancer, concentration producing 50% reduction in cell growth, read-out: Cytotoxicity (IC50 in nM) MCF. The method, then:
as §1, §2, §3

A short description of data set [7]: In vitro cytotoxicity against normal fibroblast cells WI38. It counts as cell-based. The following applies: human, concentration producing 50% reduction in cell growth. The method, then:
as §1, §2, §3

As for `O=c1oc2ccccc2cc1-c1cn(-c2ccccc2)c(=Nc2ccccc2)s1` [Compound 5a, 3-(3-Phenyl-2-(phenylimino)-2,3-dihydrothiazol-5-yl)-2H-chromen-2-one], the melting point – broadly, the temperature, or range, at which the solid turns liquid – was in the range of 158 to 160 °C. Besides, the IC50 – broadly, the midpoint of a concentration-inhibition curve – in data set [1] amounted to 228 nM. Also, the half-maximal inhibitory concentration (IC50) in data set [2] came to 569 nM. Moreover, the IC50 in data set [3] was 213 nM. Besides, the IC50 in data set [4] was found to be 1110 nM. Further, in data set [5], the IC50 was determined as 2050 nM. Besides, the half-inhibitory concentration (IC50) in data set [6] was determined as 2010 nM. The compound also gave a concentration for half-maximal inhibition (IC50) in data set [7] of 632 nM.

Compound `Cc1ccc(-n2cc(-c3cc4ccccc4oc3=O)sc2=Nc2ccccc2)cc1` [Compound 5b, 3-(2-(Phenylimino)-3-(p-tolyl)-2,3-dihydrothiazol-5-yl)-2H-chromen-2-one] showed a melting point of 99 to 101 °C. Further, in data set [1], the half-inhibitory concentration (IC50) was 2210 nM. Moreover, the IC50 in data set [2] was determined as 1070 nM. Further, the IC50 in data set [3] worked out at 1290 nM. In addition, the IC50 in data set [4] is 1300 nM. Also, the IC50 in data set [5] came out at 2180 nM. For the same compound, the concentration for half-maximal inhibition (IC50) in data set [6] amounted to 1230 nM. Besides, 489 nM corresponded to half-maximal inhibition in data set [7] (IC50).

For the compound `COc1ccc(-n2cc(-c3cc4ccccc4oc3=O)sc2=Nc2ccccc2)cc1` [Compound 5c, 3-(3-(4-Methoxyphenyl)-2-(phenylimino)-2,3-dihydrothiazol-5-yl)-2H-chromen-2-one], the melting point is 103 to 105 °C. Also, the half-inhibitory concentration (IC50) in data set [1] worked out at 1620 nM. The half-maximal inhibitory concentration (IC50) in data set [2] was found to be 396 nM. In addition, the half-maximal inhibitory concentration (IC50) in data set [3] stood at 274 nM. Further, the IC50 in data set [4] was determined as 2120 nM. In addition, in data set [5], the half-inhibitory concentration (IC50) was 670 nM. Further, the IC50 in data set [6] amounted to 1180 nM. This compound also returned an IC50 in data set [7] of 490 nM.

In the case of `O=c1oc2ccccc2cc1-c1cn(-c2ccc(Cl)cc2)c(=Nc2ccccc2)s1` [Compound 5d, 3-(3-(4-Chlorophenyl)-2-(phenylimino)-2,3-dihydrothiazol-5-yl)-2H-chromen-2-one], the melting point is 123 to 125 °C. For the same compound, the IC50 in data set [1] is 38 nM. Also, the IC50 in data set [2] is 163 nM. The half-maximal inhibitory concentration (IC50) in data set [3] worked out at 120 nM. Further, the IC50 in data set [4] was determined as 3740 nM. The IC50 in data set [5] was 441 nM. The IC50 in data set [6] was 1260 nM. Moreover, the IC50 in data set [7] worked out at 860 nM.

`COc1ccc(C2C(Br)=C(c3cc4ccccc4oc3=O)OC(N)=C2C#N)cc1` (stereo not shown) [Compound 6b, 2-Amino-5-bromo-4-(4-methoxyphenyl)-6-(2-oxo-2H-chromen-3-yl)-4H-pyran-3-carbonitrile] came in with a melting point of 193 to 195 °C. In addition, the IC50 in data set [1] stood at 3320 nM. Also, in data set [2], the IC50 stood at 2670 nM. The half-maximal inhibitory concentration (IC50) in data set [3] was found to be 2260 nM. Besides, the IC50 in data set [4] turned out to be 169 nM. The IC50 in data set [5] was determined as 2850 nM. Besides, the IC50 in data set [6] came to 2850 nM. Also, it took 280 nM to reach half-maximal inhibition in data set [7] (IC50).

In turn, `N#CC1=C(N)OC(c2cc3ccccc3oc2=O)=C(Br)C1c1ccc(Cl)cc1` (stereo not shown) [Compound 6c, 2-Amino-5-bromo-4-(4-chlorophenyl)-6-(2-oxo-2H-chromen-3-yl)-4H-pyran-3-carbonitrile] returned a melting point of 178 to 180 °C. Further, the IC50 in data set [1] was found to be 38 nM. Moreover, the IC50 in data set [2] was determined as 283 nM. In addition, the concentration for half-maximal inhibition (IC50) in data set [3] stood at 2270 nM. Also, the half-maximal inhibitory concentration (IC50) in data set [4] amounted to 683 nM. In addition, the IC50 in data set [5] amounted to 1670 nM. Also, the IC50 in data set [6] worked out at 89 nM. The compound also had a half-inhibitory concentration (IC50) in data set [7] of 480 nM.

With `N#CC1=C(N)NC(c2cc3ccccc3oc2=O)=C(Br)C1c1ccccc1` (stereo not shown) [Compound 7a, 2-Amino-5-bromo-6-(2-oxo-2H-chromen-3-yl)-4-phenyl-1,4-dihydropyridine-3-carbonitrile], the melting point lay in the range of 171 to 173 °C. The half-inhibitory concentration (IC50) in data set [1] came out at 38 nM. In addition, the IC50 in data set [2] came out at 893 nM. Besides, the half-inhibitory concentration (IC50) in data set [3] worked out at 166 nM. Moreover, the 50% inhibitory concentration (IC50) in data set [4] was determined as 399 nM. The IC50 in data set [5] was found to be 423 nM. In addition, the half-maximal inhibitory concentration (IC50) in data set [6] is 463 nM. In data set [7], this compound returned a half-inhibitory concentration (IC50) of 379 nM.

`COc1ccc(C2C(Br)=C(c3cc4ccccc4oc3=O)NC(N)=C2C#N)cc1` (stereo not shown) [Compound 7b, 2-Amino-5-bromo-4-(4-methoxyphenyl)-6-(2-oxo-2H-chromen-3-yl)-1,4-dihydropyridine-3-carbonitrile] returned a melting point of 164 to 166 °C. Further, in data set [1], the IC50 was 782 nM. Further, in data set [2], the half-maximal inhibitory concentration (IC50) worked out at 532 nM. In addition, in data set [3], the IC50 worked out at 783 nM. Further, the IC50 in data set [4] amounted to 738 nM. The IC50 in data set [5] was 180 nM. Moreover, the IC50 in data set [6] worked out at 409 nM. In data set [7], this compound showed an IC50 of 160 nM.

In turn, `N#CC1=C(N)OC(c2cc3ccccc3oc2=O)=C(C#N)C1c1ccccc1` (stereo not shown) [Compound 10a, 2-Amino-6-(2-oxo-2H-chromen-3-yl)-4-phenyl-4H-pyran-3,5-dicarbonitrile] came in with a melting point of 173 to 175 °C. In addition, the half-maximal inhibitory concentration (IC50) in data set [1] was 537 nM. Besides, the 50% inhibitory concentration (IC50) in data set [2] turned out to be 440 nM. Also, the IC50 in data set [3] is 1160 nM. For the same compound, the IC50 in data set [4] was determined as 2770 nM. Moreover, the concentration for half-maximal inhibition (IC50) in data set [5] was 6270 nM. Also, in data set [6], the half-maximal inhibitory concentration (IC50) is 2530 nM. This compound registered an IC50 in data set [7] of 417 nM.

With `N#CC1=C(N)NC(c2cc3ccccc3oc2=O)=C(C#N)C1c1ccccc1` (stereo not shown) [Compound 11a, 2-Amino-6-(2-oxo-2H-chromen-3-yl)-4-phenyl-1,4-dihydropyridine-3,5-dicarbonitrile], the melting point was in the range of 133 to 135 °C. Moreover, in data set [1], the IC50 was determined as 680 nM. Besides, the IC50 in data set [2] was found to be 222 nM. In addition, the half-maximal inhibitory concentration (IC50) in data set [3] was 314 nM. For the same compound, the IC50 in data set [4] turned out to be 3350 nM. Further, the half-maximal inhibitory concentration (IC50) in data set [5] came to 2320 nM. In addition, the 50% inhibitory concentration (IC50) in data set [6] turned out to be 4940 nM. In addition, in data set [7], half-maximal inhibition (IC50) required 128 nM.

The compound `N#CC1=C(N)NC(c2cc3ccccc3oc2=O)=C(C#N)C1c1ccco1` (stereo not shown) [Compound 11d, 2-Amino-4-(furan-2-yl)-6-(2-oxo-2H-chromen-3-yl)-1,4-dihydropyridine-3,5-dicarbonitrile] returned a melting point of 168 to 170 °C. In addition, the IC50 in data set [1] was determined as 649 nM. The IC50 in data set [2] was found to be 3460 nM. In data set [3], the IC50 is 137 nM. Further, the IC50 in data set [4] is 3120 nM. The IC50 in data set [5] came to 1190 nM. In data set [6], the IC50 amounted to 40 nM. In data set [7], this compound returned a half-inhibitory concentration (IC50) of 652 nM.
